Test [1] concerns SH-SY5Y cells over-expressing α-syn. The test can be described thus: Cell viability (MTS reduction) in SH-SY5Y cells over-expressing α-synuclein. The conditions noted are these: Homo sapiens, 336 h, α-syn over-expression (−dox), compounds at 10 nM, +dox control = 100, 14 days, read-out: Relative cell viability protection. The class given is cell-based. Here is the method: Cell Culture. SH-SY5Y cells stably transfected with a doxycyline-inducible wild-type α-synuclein (α-syn) gene along with control SH-SY5Y cells over-expressing the β-galactosidase (β-gal) gene (a gift from L. Stefanis, Division of Basic Neurosciences, Biomedical Research Foundation of the Academy of Athens, Athens, Greece) are cultured as described by Vekrellis et al. (Vekrellis K, Xilouri M, Emmanouilidou E, Stefanis L. (2009). Inducible over-expression of α-syn in human neuronal cells leads to caspase-dependent non-apoptotic death. J Neurochem 109, 1348-1362). In accordance with this method, cells are cultured and maintained in RPMI 1640, 10% fetal bovine serum supplemented with 250 μg/mL G418 and 50 μg/mL Hygromycin B. Expression of α-syn is switched off in stock cultures with doxycycline (2 μg/mL). For experimental procedures, cells are plated at (4−8×10^4 cells/cm^2) and differentiated in absence of doxycycline and in the presence of 20 μM all-trans retinoic acid (RA) (Sigma, St Louis, Mo., USA).
Viability Assay: Cells are cultured in 96-well plates. After 24 h, cells are treated with RA and Compounds of Invention at 0.1 and 10 nM in the absence of doxycyline. Culture medium with RA and drugs is fully replaced after 7 days. Cell viability is measured by the release of lactate dehydrogenase (LDH) from necrotic cells into the culture medium and by measuring the capacity of cells to metabolize MTS tetrazolium (MTS) after 14 days in culture. LDH leakage is assessed according to the Cytotoxicity Detection KitPlus (Roche, Mannheim, Germany) and MTS reduction is assessed by the CellTiter 96® AQueous One Solution Cell Proliferation assay (Promega Corporation, Madison, Wis., USA).
Assay results for the experiments with α-syn over-expression are presented as the MTS reduction capacity (cell viability) of control cells (+dox), cells over-expressing α-syn (−dox), and cells over-expressing α-syn incubated with Compounds of the Invention at 0.1 nM (FIG. 18A) or 10 nM (FIG. 18B).
(Tetrazolium assays rely on reduction of a dye to a coloured formazan, in cell work by metabolically active cells.)

Test [2] relates to conscious New Zealand White rabbits. The test can be described thus: Blood pressure in conscious rabbits. In kind it is in vivo, rabbit. The conditions noted are these: i.v. cumulative dose-response study, Compound 3b maximum at 10 mg/kg. Here is the method: Methods: Four adult New Zealand White rabbits of both sexes were chosen for these studies. […] To unveil peripheral effects of Compound 3b, two sets of acute studies were conducted in rabbits. […] A single intravenous bolus dose at 3 mg/kg was given and a time-course study was conducted in the second set of studies. Systolic, […], mean and […] blood pressures were recorded in both the studies. […] In a separate set of studies, Clonidine (positive control) was tested where all experimental procedures including dose-regimen were identical to that of the studies with […].

Test [3] deals with T1, rat adrenergic α1B receptor (Rattus norvegicus, UniProt P15823).
T1 construct: rat adrenergic α1B receptor obtained from Wistar Rat liver; from tissue; host or cells: Wistar rat liver
T1 sequence (P15823 1-515): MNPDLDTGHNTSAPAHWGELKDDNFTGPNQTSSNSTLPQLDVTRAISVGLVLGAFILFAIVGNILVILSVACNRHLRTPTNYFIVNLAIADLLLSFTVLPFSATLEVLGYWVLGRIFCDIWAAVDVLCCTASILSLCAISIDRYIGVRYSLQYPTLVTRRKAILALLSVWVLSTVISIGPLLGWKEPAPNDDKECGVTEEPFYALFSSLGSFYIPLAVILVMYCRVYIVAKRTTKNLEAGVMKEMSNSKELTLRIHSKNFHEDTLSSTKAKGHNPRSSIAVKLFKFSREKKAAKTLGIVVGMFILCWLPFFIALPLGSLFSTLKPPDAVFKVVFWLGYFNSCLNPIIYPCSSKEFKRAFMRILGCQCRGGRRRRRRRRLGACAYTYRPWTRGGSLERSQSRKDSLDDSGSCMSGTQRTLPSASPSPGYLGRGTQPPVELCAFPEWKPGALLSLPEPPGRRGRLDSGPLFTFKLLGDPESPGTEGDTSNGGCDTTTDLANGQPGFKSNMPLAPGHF
The test can be described thus: Radioligand binding, adrenergic α1B ([3H]Prazosin). The conditions noted are these: compound at 0.1 μM, [3H]Prazosin, repeat assays, each datapoint shown; for Percentage inhibition of ligand binding, Adrenergic α1B: 0.1 µM. Summed up: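 Incubation ran 60 min at 25 °C in Tris-HCl buffer (50 mM, pH 7.4, 0.5 mM EDTA) with Wistar rat liver α1B receptor. 10 μM phentolamine set non-specific binding.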

Test [4] has as its target T2, human recombinant adrenergic α2B receptor (Homo sapiens, UniProt P18089).
T2 construct: expressed in transfected cells; host or cells: CHO-K1
T2 sequence (P18089 1-450): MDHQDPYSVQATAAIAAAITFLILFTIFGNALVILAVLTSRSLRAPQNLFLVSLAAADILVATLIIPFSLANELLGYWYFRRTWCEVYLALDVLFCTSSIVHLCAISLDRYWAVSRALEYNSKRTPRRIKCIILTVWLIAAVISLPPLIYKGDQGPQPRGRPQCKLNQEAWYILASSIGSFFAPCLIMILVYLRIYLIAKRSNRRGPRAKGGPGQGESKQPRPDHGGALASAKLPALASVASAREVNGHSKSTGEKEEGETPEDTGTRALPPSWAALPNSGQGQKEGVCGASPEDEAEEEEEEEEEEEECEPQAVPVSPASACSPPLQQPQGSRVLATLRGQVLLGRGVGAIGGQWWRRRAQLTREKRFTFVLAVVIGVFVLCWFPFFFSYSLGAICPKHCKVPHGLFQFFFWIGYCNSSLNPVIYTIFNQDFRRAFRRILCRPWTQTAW
The test can be described thus: Radioligand binding, adrenergic α2B ([3H]Rauwolscine). As to conditions: [3H]Rauwolscine, repeat assays, each datapoint shown. In outline: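 Membranes from CHO-K1 cells expressing human recombinant α2B, in 50 mM Tris-HCl pH 7.4, 12.5 mM MgCl2, 1 mM EDTA, 0.2% BSA, incubated with compound and 2.5 nM [3H]Rauwolscine, 60 min, 25 °C.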

Test [5] deals with T3, human recombinant adrenergic α2A receptor (Homo sapiens, UniProt P08913).
T3 construct: expressed in transfected cells; host or cells: insect Sf9 cells
T3 sequence (P08913 1-465): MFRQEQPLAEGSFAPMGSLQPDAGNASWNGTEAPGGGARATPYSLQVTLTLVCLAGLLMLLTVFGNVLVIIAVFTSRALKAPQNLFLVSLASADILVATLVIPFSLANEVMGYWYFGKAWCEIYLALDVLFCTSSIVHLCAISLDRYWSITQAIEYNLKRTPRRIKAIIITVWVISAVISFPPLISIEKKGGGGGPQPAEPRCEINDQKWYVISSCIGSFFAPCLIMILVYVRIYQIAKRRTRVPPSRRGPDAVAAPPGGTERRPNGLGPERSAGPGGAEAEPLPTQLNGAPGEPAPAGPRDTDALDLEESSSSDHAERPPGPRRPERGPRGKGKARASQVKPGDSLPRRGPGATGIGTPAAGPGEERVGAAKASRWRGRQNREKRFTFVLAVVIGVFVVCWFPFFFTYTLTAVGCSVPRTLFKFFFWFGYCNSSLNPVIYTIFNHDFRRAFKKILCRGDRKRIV
Description: Radioligand binding, adrenergic α2A ([3H]MK-912). As to conditions: compound at 0.1 μM; [3H]MK-912; repeat assays, each datapoint shown. Summed up:
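In 50 mM Tris-HCl (pH 7.4) containing 12.5 mM MgCl2 and 2 mM EDTA, Sf9-expressed receptor was exposed to test compound plus 1 nM [3H]MK-912 at 25 °C for 60 min. Specific binding, corrected using 10 μM WB-4101, was quantified by filtration and counting and expressed as percent inhibition.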

The next test concerns SH-SY5Y cells. The test can be described thus: Cell viability (MTS reduction) in 4-Br-A23187-treated SH-SY5Y cells. The conditions noted are these: MTS reduction capacity. The class given is cell-based. Here is the method: After 24 h, cells were depleted from FBS and kept in culture for 24 h before the experiment. Cells were then treated with 4-Br-A23187 (2 μM), hydrogen peroxide (300 μM) or the mitochondrial toxin rotenone (25 μM) in the presence of vehicle or Compound of the Invention for 24 h. Cell death was determined by measurements of LDH release according to the Cytotoxicity Detection KitPlus (Roche, Mannheim, Germany). Cell viability was determined by measuring the capacity of cells to metabolize MTS tetrazolium (MTS) according to the Cytotoxicity Detection KitPlus (Roche, Mannheim, Germany) and MTS reduction is assessed by the CellTiter 96® AQueous One Solution Cell Proliferation assay (Promega Corporation, Madison, Wis., USA). Compounds were screened at 10 nM, using DMSO as vehicle. Assay results for the experiments with hydrogen peroxide are presented as the LDH release (cell death) of untreated cells (control), hydrogen peroxide-treated cells (vehicle), and co-incubation of hydrogen peroxide with Compounds of the Invention treated cells normalized to the vehicle (FIG. 17A). This assay assesses the ability of the test compounds to protect against cell death that is mediated by mitochondrial dysfunction. In the assay, the calcium ionophore 4-Br-A23187 is used to challenge the cells, causing calcium levels to rise in mitochondria, which leads to depolarization and cell death. Test compounds are assessed for their ability to prevent cell death in response to challenge with 4-Br-A23187.

The target of test [6] is T4, human recombinant adrenergic α1D receptor (Homo sapiens, UniProt P25100).
T4 construct: expressed in transfected cells; host or cells: HEK-293
T4 sequence (P25100 1-572): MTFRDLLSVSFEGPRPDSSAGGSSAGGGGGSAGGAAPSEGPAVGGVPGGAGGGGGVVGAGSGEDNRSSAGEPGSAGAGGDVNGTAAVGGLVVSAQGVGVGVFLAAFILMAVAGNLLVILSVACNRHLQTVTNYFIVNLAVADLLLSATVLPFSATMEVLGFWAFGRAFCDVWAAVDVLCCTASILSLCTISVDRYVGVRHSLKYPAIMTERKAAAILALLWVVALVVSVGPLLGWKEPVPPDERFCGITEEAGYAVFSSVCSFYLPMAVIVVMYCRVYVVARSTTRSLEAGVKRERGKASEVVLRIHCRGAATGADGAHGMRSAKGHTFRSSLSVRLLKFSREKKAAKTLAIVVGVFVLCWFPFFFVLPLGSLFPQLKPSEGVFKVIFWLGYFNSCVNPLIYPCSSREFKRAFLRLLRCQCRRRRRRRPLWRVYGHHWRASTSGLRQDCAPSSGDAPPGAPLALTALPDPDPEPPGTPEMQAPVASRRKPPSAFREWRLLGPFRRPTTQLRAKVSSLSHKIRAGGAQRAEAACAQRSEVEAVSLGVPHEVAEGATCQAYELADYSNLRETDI
The test can be described thus: Radioligand binding, adrenergic α1D ([3H]Prazosin). As to conditions: compound at 0.1 μM; [3H]Prazosin; repeat assays, each datapoint shown; read-out: Percentage inhibition of ligand binding, Adrenergic α1D. Here is the method: Compounds were incubated with 0.6 nM [3H]Prazosin for 60 min at 25° C. Non-specific binding was estimated in the presence of 10 μM phentolamine. Receptor proteins were filtered and washed, the filters were then counted to determine [3H]Prazosin specifically bound. […] Biochemical assay results are presented as the percent inhibition of specific binding in Table B1.

[7] abbreviates: 4-Br-A23187 2 μM, 24 h, compounds at 10 nM.

Here are results for 8 molecules from patent publication US8791132B2, “Compounds and methods for treatment of hypertension” (Medivation Technologies, Inc., priority 2011, dated 2014).

What is called viability is a per cent measure of how many cells are alive, often set against a control. As to `Cc1ccc2c(c1)c1c(n2CC(O)c2ccncc2)CCN(C)C1` (stereo not drawn) [Cpd3b], the viability at 0.01 µM in test [1] amounted to 78.3%.

Regarding `Cc1ccc2c(c1)c1c(n2CC(O)c2ccncc2)CCNC1` (stereo not drawn) [Cpd39a], in test [1], the viability at 0.01 µM came to 80.8%.

Consider `Clc1cccc(Cl)c1N=C1NCCN1` [Clonidine, clonidine, reference compound], for which the “maximum arterial blood pressure drop” value in test [2] was −6 mmHg.

With `Cc1ccc2c(c1)c1c(n2CC(O)c2ccncc2)CCNC1` (stereo not drawn) [compound 39, 2-(8-methyl-1,2,3,4-tetrahydro-pyrido[4,3-b]indol-5-yl)-1-pyridin-4-yl-ethanol], the “Percentage inhibition of ligand binding, Adrenergic α1B” value in test [3] worked out at 25%. Also, the “Percentage inhibition of ligand binding, Adrenergic α2B” value in test [4] (compound at 0.03 μM, 0.03 µM) came to 89%. The “Percentage inhibition of ligand binding, Adrenergic α2A” value in test [5] stood at 1%. In addition, the “Relative cell viability protection” value with SH-SY5Y cells (setting [7]) was determined as 0.36.

Usually inhibition stands for the change of the read-out against control, counted positive when it falls. Consider `CN1CCc2c(c3cc(Cl)ccc3n2CC(O)c2ccncc2)C1` (stereo not drawn) [compound 4], for which the “Percentage inhibition of ligand binding, Adrenergic α1B” value in test [3] amounted to 60%. The inhibition at 0.1 µM in test [3] (read-out: Percentage inhibition of ligand binding, Adrenergic α1B) was found to be 51%; in test [4] (compound at 0.1 μM, read-out: Percentage inhibition of ligand binding, Adrenergic α2B) it was 101%; in test [6], 12%. In addition, the “Relative cell viability protection” value with SH-SY5Y cells (setting [7]) amounted to 0.3463.

With `N#CC(C#N)=NNc1ccc(OC(F)(F)F)cc1` [FCCP, p-trifluoromethoxyphenylhydrazone, reference compound], in the test on SH-SY5Y cells (FCCP at 10 μM for 30 min as a control), the “Relative cell viability protection” value came out at 0.1035.

For `CN1CCc2c(c3cc(Cl)ccc3n2CC(O)c2ccncc2)C1` (stereo not drawn) [Cpd4a], the viability at 0.01 µM in test [1] is 77.5%.

For the molecule `Cc1ccc2c(c1)c1c(n2CC(C)(O)c2cccnc2)CCN(C)C1` (stereo not drawn) [Cpd5b], the viability at 0.01 µM in test [1] was 85.3%.
